Laboratory results from PMC2376372, “3-Bromophenyl 6-acetoxymethyl-2-oxo-2H-1-benzopyran-3-carboxylate inhibits cancer cell invasion in vitro and tumour growth in vivo” (British Journal of Cancer, 2003).

How the values were obtained:
HMW- and LMW-uPA = assay: Plasminogen zymography of HT1080 conditioned medium; format: biochemical, human; conditions: 1–100 μM in HT1080 conditioned medium
Protocol: The culture medium of human fibrosarcoma HT1080 cells (DMEM) was removed and concentrated 20-fold in a Vivaspin 6 ml concentrator. It was incubated for 30 min at ambient temperature in nonreducing sample buffer and run under Laemmli conditions ([Laemmli, 1970]) by loading a volume of 25 μl onto 7.5% polyacrylamide gels containing 0.1% sodium dodecyl sulphate (SDS), 2 mg ml^−1 casein and 0.16 μM human plasminogen. Following electrophoresis, gels were incubated for 1 h in 2.5% (v v^−1) Triton X-100 for removal of SDS and then for 1 h at 37°C in 50 mM Tris-HCl, 0.1 M NaCl, pH 7.6. Plasminogen activator (PA) activity was visualised as clear bands of lysis upon staining with 0.1% Coomassie blue R250. Purified human high-molecular-weight two-chain urokinase plasminogen activator (HMW-uPA) and low-molecular-weight urokinase plasminogen activator (LMW-uPA) were run in each gel as positive controls. An analogous protocol was followed to detect enzymatic activities towards MMP-2 and MMP-9 except that the 7% SDS–PAGE contained 1 mg ml^−1 bovine gelatin. The gels were incubated at 37°C for about 18 h in 5 mM Tris, pH 7.6 containing 0.2 M NaCl, 5 mM CaCl2 and 0.02 (w v^−1) Brij35. Protein staining was performed during 1 h with a 0.25% solution of Coomassie brillant blue R250 in 50% methanol and 7% acetic acid and destaining in a solution of 20% methanol and […]. […]

[1] = test system: HT1080 fibrosarcoma cells; assay: Chemoinvasion assay, type IV collagen-coated Transwell inserts (Boyden chamber); format: cell-based, human; conditions: Homo sapiens, HT-1080, 48 h, type IV collagen-coated filters, read-out: inhibition of HT1080 cell invasion (chemoinvasion)
Protocol: Plates (24-well) (Falcon, Becton-Dickinson, USA) and 6.5 mm polycarbonate filters (8 μm pore size) of Transwell cell culture chamber inserts (Costar, Netherlands) were coated with 100 μl of type IV collagen purified from human placenta diluted at 200 μg ml^−1 in phosphate-buffered saline (PBS). Coats were left to air-dry overnight in a laminar flow hood under UV light. Uniformity of the coating was assessed by Coomassie blue staining. Before use, coated plates and inserts were washed twice with water and incubated for at least 1 h in serum-free DMEM at 37°C ([Maquoi et al, 1999]).
HT1080 cells exponentially growing in T-75 flasks (Nunc, Costar, Netherlands) were collected by trypsin–ethylenediaminetetraacetic acid treatment, washed with serum-containing medium and allowed to recover from trypsinisation for at least 30 min at 37°C. Cells were then washed twice in serum-free DMEM and diluted in the same medium supplemented with 0.1% bovine serum albumin (BSA, fraction V, Sigma, USA) to a cell density of 6 × 10^5 cells ml^−1.
The influence of coumarin derivatives (0.1, 1 and 10 μM) on HT1080 cell invasion and migration was assayed using Transwell cell culture inserts (Costar) and compared to the reference compound GI 129471 (1 μM), an MMP inhibitor ([Wheeler et al, 1998]).
For chemoinvasion assays, type IV collagen-coated membranes (see above) were used, whereas uncoated membranes were employed for chemotaxis assays. Lower wells of chambers were filled with DMEM supplemented with 20% FCS and 1% BSA (fraction V, ICN) as chemoattractant, in the presence or absence of coumarin derivative (final concentration 0.1, 1 and 10 μM) or GI 129471 (final concentration 1 μM). Cells (6 × 10^4) suspended in DMEM supplemented with 0.1% BSA (fraction V, ICN) were seeded in the upper wells. Chambers were subsequently incubated for 48 and 4 h for chemoinvasion and chemotaxis assays, respectively, in a humid atmosphere at 37°C (in order to maintain a chemotactic gradient, media from both lower and upper wells were renewed after 24 h). After incubation, filters were removed from the chambers, fixed in 4% paraformaldehyde for 15 min (4°C), permeabilised for 10 min in methanol (−20°C) and stained with Giemsa (4%) for 15 min. The upper surface of the filters was scrapped with a cotton swab and cells having reached the lower surface of the filters were visually counted using a light microscope (Vanox AH3, Olympus, Hamburg, Germany) at 20-fold magnification. Each assay was performed in triplicate. Results were expressed as percentages (±s.d.) of the migration of control cells.

| Compound | effect on HMW- and LMW-uPA activities of conditioned culture medium (plasminogen zymography) (HMW- and LMW-uPA) | inhibition at 1 µM [1] [%] | inhibition at 10 µM [1] [%] |
| --- | --- | --- | --- |
| CC(=O)OCc1ccc2oc(=O)c(C(=O)Oc3cccc(Br)c3)cc2c1 [compound 7, 3-bromophenyl 6-acetoxy-methyl-2-oxo-2H-1-benzopyran-3-carboxylate] | did not abrogate | 80 | ~90 |
| CC(=O)OCc1ccc2oc(=O)c(C(=O)Oc3cccc(Cl)c3)cc2c1 [compound 4, 3-chlorophenyl 6-acetoxymethyl-2-oxo-2H-1-benzopyran-3-carboxylate] | did not abrogate | 50 | 90 |
